Laboratory results as given in a melting point compilation (Tetko et al.; mined from patent text by program, amines drawn as free bases though some values may be those of a salt).

Compound	melting point
Cc1c(O)cc2c(c1Br)[C@H](O)[C@H](N1CCC(O)(c3ccc(F)cc3)CC1)CO2 (relative stereo)	196 °C
Cc1c(C(=O)N[C@H](C)[C@](O)(Cn2cncn2)c2ccc(F)cc2F)cnn1-c1ccccc1Cl	232 to 233 °C
Cc1nc2c(n1C(=O)OC(C)(C)C)CCCC2=O	126 °C
COC1OCOc2cc3c4c(cccc4c21)C(=O)N(O)C3=O (configuration not stated)	249 to 251 °C
O=C1COC(C#Cc2ccccc2)(C(F)(F)F)c2cc(Cl)ccc2N1 (configuration not stated)	190 to 191 °C
CC(O)=C(C#N)C(=O)Nc1ccc([N+](=O)[O-])c(C)c1	231 to 233 °C
Cc1ccc(N(C(=O)CCl)c2c(F)cc(F)cc2Cl)cc1	137 to 140 °C
CC(=O)N(CC(=O)O)c1c(C(=O)c2ccccc2)[nH]c2cc(Cl)ccc12	148 to 154 °C
CC1=C(C(=O)OCC2CCCO2)C(c2cccc(Br)c2)C(C(=O)OCC2CCCO2)=C(C)N1 (configuration not stated)	138 to 140 °C
CN1Cc2c(F)ccc3scc(c23)S1(=O)=O	175 °C
O=C(Cc1ccc(Cl)c(Cl)c1)N1CCNC2CCCCC21 (configuration not stated)	119 to 120 °C
O=C1NC(=O)c2c1c(-c1ccccc1)cc1c2c2cc(O)ccc2n1CCCN1CCNCC1	178 to 183 °C
COC(=O)CN1CCN2C(Cc3cc(OC)c(OC)cc3C2c2ccccc2)C1 (configuration not stated)	110 to 113 °C
CC(C)(C(=O)O)c1nc2ccc(OCCCN3CCN(C(c4ccccc4)c4ccccc4)CC3)nn2c1Cl	118 to 121 °C
CCCCCCNC(=O)NOCC(O)CN1CCCCC1 (configuration not stated)	50 to 52 °C
c1ccc(CC2CCN2C(c2ccccc2)c2ccccc2)cc1 (configuration not stated)	87.5 °C
CC(C)(C)OC(=O)n1ccc2cc([N+](=O)[O-])ccc21	135 to 137 °C
COc1cccc(CN(Cc2cccc(OC)c2)c2ccc(-c3ccccc3)cc2)c1	98 to 98.5 °C
O=C(O)c1ccc(-c2cnc3c(c2)N(Cc2ccccc2)CCN3)cc1	> 300 °C
COc1ccc(Nc2c([N+](=O)[O-])cc([N+](=O)[O-])c(Cl)c2C(=O)O)cc1	241 to 245 °C
COc1ccc(CCc2ccncc2)c2cc(C#N)nn12	191 to 192 °C
O=S(=O)(c1ccccc1)n1c2cc(O)c(O)cc2c2cc(O)c(O)cc21	240 to 241 °C
CS(=O)(=O)c1ccc(-c2n[nH]c(=O)cc2-c2ccc(Cl)cc2)cc1	254 to 255 °C
CCCc1nc(N2CCOCC2)nc(N(CCOC(C)=O)C(C)=O)n1	49 to 50 °C

Continued, values first:

melting point	Compound
206 °C	O=C(O)CN(Cc1ccc(OCc2ccc(F)cc2)cc1)C(=O)c1cn2cc(-c3ccc(Cl)cc3)ccc2n1
195 to 197 °C	CCCCC(CC)COc1ccc(-c2c3ccc(O)cc3c(-c3ccc(OCC(CC)CCCC)cc3)c3ccc(O)cc23)cc1 (configuration not stated)
128 to 129 °C	CCC(O)(C(N)=O)c1cc(C(F)(F)F)cc(C(F)(F)F)c1 (configuration not stated)
144 to 145 °C	O=C(NCCCCCCCCCNC(=O)c1ccc(OC(F)(F)F)cc1)c1ccc(OC(F)(F)F)cc1
94 °C	COc1cc(C(=O)NC=NC(=O)ON(c2ccc(C)c(NC(=O)c3ccc(OCc4ccccc4)cc3)c2)C(C)(C)C)cc(OC)c1OC
66 to 68 °C	CNc1cc(Oc2cccc(C(F)(F)F)c2)nc(C(=O)O)c1
65 to 67 °C	CC(=O)c1ccc(Oc2ccc(F)cc2)cc1
94 to 96 °C	NC(=O)c1ccc(CCCNCC(O)c2ccccc2)s1 (configuration not stated)
138 to 141 °C	CCC(C)(C)OC(=O)NC(C)(Cc1c[nH]c2ccccc12)C(=O)NCCc1ccncc1 (configuration not stated)
140 to 143 °C	CC(=O)SCC(C(=O)N[C@@H](Cc1c[nH]c2ccccc12)C(=O)O)C(F)(F)F (some centres not stated)
141 to 143 °C	COC(=O)c1ccccc1NC(=O)C=C(c1ccc(Cl)cc1)c1ccc(Cl)cc1
51.2 to 52.8 °C	CCCOC(=O)CC(c1ccc(OC)cc1)N1C(=O)c2ccccc2C1=O (configuration not stated)
90 to 96 °C	CNc1ccc(C(=O)N(CCN2CCC(C(=O)c3ccc(F)cc3)CC2)c2cccnc2)cc1
